The nature of experiment [1]: Inhibition of gamma secretase-mediated notch processing in C57BL/6 mouse fetal thymic organ cultures assessed as reduction of B and T-cell populations after […] by FACS analysis. (Flow cytometry measures light scatter and fluorescence of single cells or particles in a stream.)
Experiment [2] has as its system Cavia porcellus. In words: Antialzheimer activity in sc dosed guinea pig assessed as reduction of total amyloid beta level in brain after 3 hrs by DELFIA-based ELISA. It is filed as functional.
The test system of experiment [3] is Cavia porcellus. In words: Antialzheimer activity in guinea pig assessed as reduction of total amyloid beta level in plasma at 1 to 32 mg/kg, sc after 3 hrs by DELFIA-based ELISA. Format: functional. Also noted: scale not given: the % may be the effect or the level left. The following applies: dose mg/kg 1-32; route subcutaneous.
In experiment [4] the test system is Cavia porcellus. Put plainly: Antialzheimer activity in guinea pig assessed as reduction of total amyloid beta level in plasma at 3.2 mg/kg, sc after 3 hrs by DELFIA-based ELISA. Format: functional, organism-based. Also noted: dose 3.2 mg/kg.
Experiment [5] deals with Cavia porcellus. In words: Antialzheimer activity in guinea pig assessed as reduction of total amyloid beta level in plasma at 1 to 32 mg/kg, sc after 1 hr by DELFIA-based ELISA. It is filed as functional, organism-based. A general note: An ELISA detects its analyte on a solid surface through an enzyme-linked reagent.
In experiment [6] the test system is Cavia porcellus. In words: Antialzheimer activity in guinea pig assessed as reduction of total amyloid beta level in brain at 1 to 32 mg/kg, sc after 1 hr by DELFIA-based ELISA. Format: functional, organism-based.
In experiment [7] the test system is Cavia porcellus. In words: Antialzheimer activity in guinea pig assessed as reduction of total amyloid beta level in cerebral spinal fluid at 1 to 32 mg/kg, sc after 1 hr by DELFIA-based ELISA. Format: functional, organism-based.
Experiment [8] deals with Cavia porcellus. Put plainly: Antialzheimer activity in guinea pig assessed as reduction of total amyloid beta level in plasma at 1 to 32 mg/kg, sc after 3 to 7 hrs by DELFIA-based ELISA. Format: functional, organism-based.
Experiment [9] relates to Cavia porcellus. In words: Antialzheimer activity in guinea pig assessed as reduction of total amyloid beta level in brain at 1 to 32 mg/kg, sc after 3 to 7 hrs by DELFIA-based ELISA. It is filed as functional, organism-based.
For experiment [10], the system named is Cavia porcellus. In words: Antialzheimer activity in guinea pig assessed as reduction of total amyloid beta level in cerebral spinal fluid at 1 to 32 mg/kg, sc after 3 to 7 hrs by DELFIA-based ELISA. Format: functional, organism-based.
For experiment [11], the system named is Cavia porcellus. Put plainly: Antialzheimer activity in guinea pig assessed as reduction of total amyloid beta level in brain at 5 mg/kg, sc administered 3 doses over 24 hrs measured after 3 hrs last post dose by DELFIA-based ELISA. It is filed as functional. Also noted: scale not given: the % may be the effect or the level left. The following applies: route subcutaneous.

Experiment [12] can be described thus: Inhibition of gamma-secretase in guinea pig brain. Also noted: species or system Cavia porcellus.
Experiment [13] deals with Cavia porcellus. Put plainly: Antialzheimer activity in guinea pig assessed as reduction of total amyloid beta level in brain at 10 mg/kg, sc after 3 hrs by DELFIA-based ELISA. Format: functional. Also noted: scale not given: the % may be the effect or the level left.
The species entered for a further experiment is Mus musculus. Put plainly: Antialzheimer activity in heterozygous PDAPP transgenic mouse overexpressing APP V717F mutant assessed as reduction of total amyloid beta level in brain. Format: functional. The following applies: read-out: MED.

pEC50, pIC50: −log10 of the molar value. Activity calls are given as the source filed them. The calls are words filed in the database; no cut-off is given here.

In general, pEC50 refers to the EC50 on a negative log10 scale, so that one unit is a factor of ten. One may read the ED50 as the dose at which the effect has come halfway, by size or by number of responders. As a reminder, the pIC50 is the IC50 on a negative log10 scale, so that one unit is a factor of ten. For the molecule `CCC[C@H](NC(=O)Cc1cc(F)cc(F)c1)C(=O)Nc1cn(C(C)(C)CNCC(C)(C)C)cn1`, the pEC50 in [1] was 5.92. The ED50 in the experiment with Cavia porcellus [2] came out at 7.3 mg/kg. In addition, the Activity with Cavia porcellus [3] is given as 60%; in the experiment on Cavia porcellus [11], 50%. The result in the experiment with Cavia porcellus [4], with Cavia porcellus [5], in the experiment with Cavia porcellus [6], in the experiment on Cavia porcellus [8], in the experiment with Cavia porcellus [9] and with Cavia porcellus [10] was Active. Also, the outcome in the experiment with Cavia porcellus [7] was inactive. In addition, the negative-log IC50 (pIC50) in [12] is 7.62.
Turning to `CCC[C@H](NC(=O)Cc1cc(F)cc(F)c1)C(=O)Nc1cn(C(C)(C)CC(=O)OC)cn1`, in the experiment on Cavia porcellus [13] (route subcutaneous), the Activity was 32%.
For `CCC[C@H](NC(=O)Cc1cc(F)cc(F)c1)C(=O)Nc1cn(C(C)(C)CN(C)C)cn1`, in experiment [1], the pEC50 was 6.15.
For the molecule `CCC[C@H](NC(=O)Cc1cc(F)cc(F)c1)C(=O)Nc1cn(C(C)(C)CNC(C)C)cn1`, the pEC50 in experiment [1] was less than 5.00.
For the molecule `C[C@H](NC(=O)Cc1cc(F)cc(F)c1)C(=O)Nc1cn(C(C)(C)CN2CCCC2)cn1`, in the experiment on Cavia porcellus [13], the outcome was inactive.
As to `CCC[C@H](NC(=O)Cc1cc(F)cc(F)c1)C(=O)Nc1cn(C(C)(C)CN2CCCC2)cn1`, the Activity with Cavia porcellus [13] (route subcutaneous) worked out at 43%.
Regarding `CCC[C@H](NC(=O)Cc1cc(F)cc(F)c1)C(=O)Nc1cn(C(C)(C)CN2CCOCC2)cn1`, in experiment [1], the pEC50 is 7.00.
Consider `CC(C)C[C@H](NC(=O)Cc1cc(F)cc(F)c1)C(=O)Nc1cn(C(C)(C)CN2CCCC2)cn1`, for which the result with Cavia porcellus [13] was inactive.
For `CCC[C@H](NC(=O)Cc1cc(F)cc(F)c1)C(=O)Nc1cn(C(CC)CC)cn1`, the Activity with Cavia porcellus [13] (route subcutaneous) is reported as less than 10%.
Consider `CCC[C@H](NC(=O)Cc1cc(F)cc(F)c1)C(=O)Nc1cn(C(C)(C)CNC2CCC(O)CC2)cn1` (some centres undefined), for which the pEC50 in experiment [1] is less than 5.00.
For `CCC[C@H](NC(=O)Cc1cc(F)cc(F)c1)C(=O)Nc1cn(C(C)(C)CNCc2ccccc2)cn1`, in [1], the pEC50 was 5.37.
Turning to `C[C@H](NC(=O)Cc1cc(F)cc(F)c1)C(=O)N[C@H](C(=O)OC(C)(C)C)c1ccccc1`, the minimal effective dose in the experiment filed under Mus musculus worked out at 30 mg/kg.
For `CCC[C@H](NC(=O)Cc1cc(F)cc(F)c1)C(=O)Nc1cn(C(C)(C)CNCC2CCOCC2)cn1`, in experiment [1], the negative logarithm of the EC50 (pEC50) was 5.40.
